Tests used:
[1] = system: metastatic ovarian adenocarcinoma; assay: Patient-A clinical outcome and tumor MRI; assay type: in vivo, human
Text: 2017-2018: Patient-A received 8 cycles of vaccination as add-on therapy, and lived 17 months (528 days) after start of the treatment. […] They died in October 2018.
Patient' tumor MRI findings (Baseline Apr. 15, 2016) (BL: baseline for tumor response evaluation on FIG. 22) Disease was confined primarily to liver and lymph nodes. The use of MRI limits detection of lung (pulmonary) metastasis May 2016-January 2017: Olaparib treatment (FU1: follow up 1 on FIG. 22) Dec. […] Peritoneal carcinomatosis with increased amount of ascites. Progressive hepatic tumor and lymph node
Jul. 26, 2017 (after the 2nd Cycle of PIT): (FU4 on FIG. 22) Progression/Pseudo-Progression • Rapid progression in lymph nodes, hepatic, retroperitoneal and thoracic areas, significant pleural fluid and ascites. Initiate Carboplatin, Gemcitabine, Avastin. Sep. […] Nov. […] Remission in hepatic, retroperitoneal area and lymph nodes

[2] = system: subjects of 64 clinical studies; conditions: published clinical trials, cited from earlier work; for IRR: proportion of subjects in the study population with T cell responses induced by the study vaccine
[3] = FU1, Olaparib treatment May 2016-January 2017
[4] = FU2, Dec. 25, 2016, before PIT vaccine treatment
[5] = FU3, Apr. 6, 2017, after TOPO protocol

O=C(c1cc(Cc2n[nH]c(=O)c3ccccc23)ccc1F)N1CCN(C(=O)C2CC2)CC1 [Olaparib]
SUM of lesions (% Δ from BL) [1, 3]: −66.3% | TL1 (% Δ from BL) [1, 3]: −56.1% | TL2 (% Δ from BL) [1, 3]: −100.0% | TL3 (% Δ from BL) [1, 3]: −59.4% | TL4 (% Δ from BL) [1, 3]: −65.8% | SUM of lesions (% Δ from BL) [1, 4]: −76.0% | TL1 (% Δ from BL) [1, 4]: −44.4% | TL2 (% Δ from BL) [1, 4]: −100.0% | TL3 (% Δ from BL) [1, 4]: −62.3% | TL4 (% Δ from BL) [1, 4]: −100.0%

CC[C@@]1(O)C(=O)OCc2c1cc1n(c2=O)Cc2cc3c(CN(C)C)c(O)ccc3nc2-1 [TOPO protocol]
SUM of lesions (% Δ from BL) [1, 5]: −68.9% | TL1 (% Δ from BL) [1, 5]: −44.8% | TL2 (% Δ from BL) [1, 5]: −47.1% | TL3 (% Δ from BL) [1, 5]: −62.0% | TL4 (% Δ from BL) [1, 5]: −100.0%

Her2/neu peptide vaccine (p688) (RRLLQETEL; UniProt P04626 688-696, looked up, fragment)
IRR [2]: 31%

Her2/neu peptide vaccine (p971) (ELVSEFSRM; UniProt P04626 971-979, looked up, fragment)
IRR [2]: 54%

Iplilimumab (NYESO-1 specific response)
IRR [2]: 72% | ORR ([2]; proportion of subjects with objective response (complete and partial response) after vaccination): 25%

Reference: US20200069786A1, “COMPOSITION AND PROCESS FOR PREPARING VACCINE” (TREOS BIO ZRT., priority 2018, published 2020)
